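Five concentrations, 48 hours, 96-well plates. GI50 is the concentration that inhibits growth by half.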 Activity calls are given as the source filed them. Rule as the data show it: active = GI50 up to about 1.1 µM and inactive = higher.
Columns and labels:
Assay in all cases: NCI-60 cell line screen, 48 h
[1] = tested on: ACHN
[2] = tested on: NCI/ADR-RES
[3] = tested on: A549
[4] = tested on: SF-295
[5] = tested on: HOP-92
[6] = tested on: SK-MEL-5
[7] = tested on: SW-620
[8] = tested on: MCF7
[9] = tested on: TK-10
[10] = tested on: U-251
[11] = tested on: KM12
[12] = tested on: HCT-15
[13] = tested on: HCT-116
[14] = tested on: HOP-62
[15] = tested on: NCI-H460
[16] = tested on: NCI-H522
[17] = tested on: EKVX
[18] = tested on: SN12C
[19] = tested on: 786-0
[20] = tested on: Hs-578T
[21] = tested on: MOLT-4
[22] = tested on: MDA-MB-231
[23] = tested on: BT-549
[24] = tested on: SK-OV-3
[25] = tested on: NCI-H226
[26] = tested on: DU-145
[27] = tested on: UACC-257
[28] = tested on: OVCAR-8
[29] = tested on: MDA-N
[30] = tested on: K562
[31] = tested on: IGROV-1
[32] = tested on: OVCAR-3
[33] = tested on: HL-60
[34] = tested on: Malme-3M
[35] = tested on: SK-MEL-2
[36] = tested on: SNB-19
[37] = tested on: NCI-H23
[38] = tested on: SF-268
[39] = tested on: PC-3
[40] = tested on: CAKI-1
[41] = tested on: HCC 2998
[42] = tested on: OVCAR-5
[43] = tested on: T47D
[44] = tested on: A498
[45] = tested on: MDA-MB-435
[46] = tested on: HT-29
[47] = tested on: UACC-62
[48] = tested on: OVCAR-4
[49] = tested on: CCRF-CEM
[50] = tested on: SNB-75
[51] = tested on: LOX IMVI
[52] = tested on: SK-MEL-28
[53] = tested on: UO-31
[54] = tested on: RXF 393
[55] = tested on: COLO 205
[56] = tested on: SF-539
[57] = tested on: RPMI-8226
[58] = tested on: M14
[59] = tested on: SR

Measured: GI50

CC1=NN(C(=O)CC(=O)N(C(=O)c2ccccc2)c2ccc(Cl)cc2)C(=O)C1/N=N/c1ccc([N+](=O)[O-])cc1 (stereo not drawn)
> 10 µM: [12]
inactive: [1] > 10 µM | [2] > 10 µM | [3] > 10 µM | [4] > 10 µM | [5] > 10 µM | [6] > 10 µM | [7] > 10 µM | [8] > 10 µM | [9] > 10 µM | [10] > 10 µM | [11] > 10 µM | [13] > 10 µM | [14] > 10 µM | [15] > 10 µM | [16] > 10 µM | [17] > 10 µM | [18] > 10 µM | [19] > 10 µM | [20] > 10 µM | [21] 6.49 µM | [22] > 10 µM | [23] > 10 µM | [24] > 10 µM | [25] > 10 µM | [26] > 10 µM | [27] > 10 µM | [28] > 10 µM | [29] > 10 µM | [30] > 10 µM | [31] > 10 µM | [32] > 10 µM | [33] > 10 µM | [34] > 10 µM | [35] > 10 µM | [36] > 10 µM | [37] > 10 µM | [38] > 10 µM | [39] > 10 µM | [40] > 10 µM | [41] > 10 µM | [42] > 10 µM | [43] > 10 µM | [44] > 10 µM | [45] > 10 µM | [46] > 10 µM | [47] > 10 µM | [48] > 10 µM | [49] > 10 µM | [50] > 10 µM | [51] > 10 µM | [52] > 10 µM | [53] > 10 µM | [54] > 10 µM | [55] > 10 µM | [56] > 10 µM | [57] > 10 µM

C#CC(C)(C)OC(=O)C(=[N+]=[N-])C(C)=O
> 10 µM: [12]
inactive: [1] > 10 µM | [3] > 10 µM | [4] > 10 µM | [5] > 10 µM | [6] > 10 µM | [7] > 10 µM | [8] > 10 µM | [9] > 10 µM | [10] > 10 µM | [11] > 10 µM | [13] > 10 µM | [14] > 10 µM | [15] > 10 µM | [17] > 10 µM | [18] > 10 µM | [19] > 10 µM | [20] > 10 µM | [21] > 10 µM | [22] > 10 µM | [23] > 10 µM | [24] > 10 µM | [25] > 10 µM | [26] > 10 µM | [27] > 10 µM | [28] > 10 µM | [58] > 10 µM | [29] > 10 µM | [30] > 10 µM | [31] > 10 µM | [32] > 10 µM | [33] > 10 µM | [34] > 10 µM | [59] > 10 µM | [35] > 10 µM | [36] > 10 µM | [37] > 10 µM | [38] > 10 µM | [39] > 10 µM | [41] > 10 µM | [42] > 10 µM | [43] > 10 µM | [44] > 10 µM | [45] > 10 µM | [46] > 10 µM | [47] > 10 µM | [49] > 10 µM | [50] > 10 µM | [51] > 10 µM | [52] > 10 µM | [53] > 10 µM | [54] > 10 µM | [56] > 10 µM | [57] > 10 µM

COC(C)(C)C(O)C(O)C[C@H](C)C1CC=C2C1(C)CCC1[C@@]3(C)CCC(OC(C)=O)C(C)(C)C3CC(OC3OC(COC(C)=O)C(O)C(O)C3O)[C@@]21C (stereo partly drawn)
inactive: [1] 3.87 µM | [2] > 10 µM | [3] 4.13 µM | [4] 3.03 µM | [5] 3.6 µM | [6] 2.21 µM | [7] 5.38 µM | [8] 3.33 µM | [9] 4.53 µM | [10] 4.37 µM | [11] 2.92 µM | [13] 3 µM | [14] 3.98 µM | [15] 3.24 µM | [16] 2.78 µM | [17] 4.79 µM | [18] 4.2 µM | [19] 4.8 µM | [20] 4.37 µM | [21] 1.93 µM | [22] 2.5 µM | [23] > 10 µM | [24] > 10 µM | [25] 5.21 µM | [26] 7.1 µM | [27] 3.02 µM | [28] 3.72 µM | [58] 3.15 µM | [29] 3.01 µM | [30] 3.33 µM | [31] 2.78 µM | [32] 2.94 µM | [33] 2.59 µM | [34] 5.55 µM | [36] 5.01 µM | [37] 4.85 µM | [38] 6.05 µM | [39] 3.48 µM | [40] > 10 µM | [41] 2.14 µM | [42] 2.88 µM | [43] 5.13 µM | [44] 3.31 µM | [45] 3.24 µM | [46] 3.41 µM | [47] 2.76 µM | [48] 5.86 µM | [49] 3 µM | [50] 3.7 µM | [51] 2.32 µM | [52] 4.57 µM | [54] 3.85 µM | [55] 1.99 µM | [56] 2.83 µM | [57] 2.07 µM
3.85 µM: [12]
active: [53] 0.287 µM
